In US20160108039A1, “TRIAZOLOPYRIDINES AS THROMBIN INHIBITORS FOR THE TREATMENT OF THROMBOEMBOLIC DISEASES” (BAYER PHARMA AKTIENGESELLSCHAFT, priority 2013, published 2016):

Tests used:
thrombin [1] = target: T1, thrombin (Homo sapiens, UniProt P00734); assay: Measurement of the thrombin inhibition in buffer; type: biochemical; conditions: human thrombin 0.06 nmol/l in Tris buffer pH 7.4, 22° C., substrate Boc-Asp(OBzl)-Pro-Arg-AMC; in some cases means of individual determinations
Procedure: To determine the thrombin inhibition of the substances listed above, a biochemical test system is constructed in which the conversion of a thrombin substrate is used for determining the enzymatic activity of human thrombin. Here, thrombin cleaves aminomethylcoumarin, which is measured fluorescently, from the peptic substrate. The determinations are carried out in microtitre plates.
Substances to be tested are dissolved in various concentrations in dimethyl sulphoxide and incubated for 15 min with human thrombin (0.06 nmol/l dissolved in 50 mmol/l of Tris buffer [C,C,C-tris(hydroxymethyl)aminomethane], 100 mmol/l of sodium chloride, 0.1% BSA [bovine serum albumin], pH 7.4) at 22° C. The substrate (5 μmol/l Boc-Asp(OBzl)-Pro-Arg-AMC from Bachem) is then added. After 30 min of incubation, the sample is excited at a wavelength of 360 nm and the emission is measured at 460 nm. The measured emissions of the test mixtures with test substance are compared to the control mixtures without test substance (only dimethyl sulphoxide instead of test substance in dimethyl sulphoxide) and IC50 values are calculated from the concentration/activity relationships. Representative activity data from this test are given in Table 1 below (in some cases as means of individual determinations): […]

thrombin [2] = target: T1, thrombin; assay: Thrombin-inhibitory activity in plasma samples (ecarin-activated); type: biochemical; conditions: citrate plasma, ecarin activation, fluorogenic thrombin substrate; read at about 70% of maximum signal (about 12 min); in some cases means
Procedure: To determine the inhibition of thrombin in plasma samples, plasma prothrombinase is activated by ecarin. Thrombin activity and/or its inhibition by potential inhibitors is/are then measured fluorescently by addition of a substrate.
The substances to be tested are dissolved in various concentrations in dimethyl sulphoxide and diluted with water. In white 96-well flat-bottomed plates, 20 μl of substance dilution are mixed with 20 μl of ecarin solution (ecarin reagent, from Sigma E-0504, final concentration 20 mU per reaction) in Ca buffer (200 mM Hepes+560 mM sodium chloride+10 mM calcium chloride+0.4% PEG) or with 20 μl of Ca buffer (as unstimulated control). Furthermore, 20 μl of fluorogenic thrombin substrate (from Bachem 1-1120, final concentration 50 μmol/l) and 20 μl of citrate plasma (from Octapharma) are added, and the mixture is homogenized well. The plate is measured in a SpectraFluorplus Reader using a 360 nm excitation filter and a 465 nm emission filter every minute over 20 minutes. […] Representative activity data from this test are given in Table 2 below (in some cases as means of individual determinations): […]

COc1cc(C(=O)N2CC(C)(C)OCC2(C)CO)cn2nc(NCc3cccc(Cl)c3)nc12 (racemic) [Example 8, {2-[(3-Chlorobenzyl)amino]-8-methoxy[1,2,4]triazolo[1,5-a]pyridin-6-yl}[5-(hydroxymethyl)-2,2,5-trimethylmorpholin-4-yl]methanone]
IC50 (thrombin [1]): 20 nM
IC50 (thrombin [2]): 29 nM

COCC1COC(C)(C)CN1C(=O)c1cc(OC)c2nc(NCc3cccc(Cl)c3)nn2c1 (racemic) [Example 11, {2-[(3-Chlorobenzyl)amino]-8-methoxy[1,2,4]triazolo[1,5-a]pyridin-6-yl}[5-(methoxymethyl)-2,2-dimethylmorpholin-4-yl]methanone]
IC50 (thrombin [1]): 63 nM
IC50 (thrombin [2]): 64 nM

COc1cc(C(=O)N2CC(C)(C)OCC2CF)cn2nc(NCc3cccc(Cl)c3)nc12 (racemic) [Example 12, {2-[(3-Chlorobenzyl)amino]-8-methoxy[1,2,4]triazolo[1,5-a]pyridin-6-yl}[5-(fluoromethyl)-2,2-dimethylmorpholin-4-yl]methanone]
IC50 (thrombin [1]): 35 nM
IC50 (thrombin [2]): 56 nM

COc1cc(C(=O)N2CC(C)OCC2CCO)cn2nc(NCc3cccc(Cl)c3)nc12 (racemic) [Example 15, {2-[(3-Chlorobenzyl)amino]-8-methoxy[1,2,4]triazolo[1,5-a]pyridin-6-yl}[5-(2-hydroxyethyl)-2-methylmorpholin-4-yl]methanone]
IC50 (thrombin [1]): 53 nM
IC50 (thrombin [2]): 75 nM

COc1cc(C(=O)N2CC(C)OCC2(C)C)cn2nc(NCc3cccc(Cl)c3)nc12 (racemic) [Example 26]
IC50 (thrombin [1]): 88 nM

COc1cc(C(=O)N2CC(C)(CCO)OCC2(C)C)cn2nc(NCc3cccc(Cl)c3)nc12 (racemic) [Example 31, {2-[(3-Chlorobenzyl)amino]-8-methoxy[1,2,4]triazolo[1,5-a]pyridin-6-yl}[2-(2-hydroxyethyl)-2,5,5-trimethylmorpholin-4-yl]methanone]
IC50 (thrombin [1]): 11 nM
IC50 (thrombin [2]): 15 nM

COc1cc(C(=O)N2CC(C)OCC2CC(C)(C)O)cn2nc(NCc3cccc(Cl)c3)nc12 (racemic) [Example 42, {2-[(3-Chlorobenzyl)amino]-8-methoxy[1,2,4]triazolo[1,5-a]pyridin-6-yl}[5-(2-hydroxy-2-methylpropyl)-2-methylmorpholin-4-yl]methanone]
IC50 (thrombin [1]): 37 nM
IC50 (thrombin [2]): 54 nM

COc1cc(C(=O)N2CC3CCN3C(=O)C2C)cn2nc(N[C@H](C)c3cccc(Cl)c3)nc12 (single isomer, unassigned) [Example 1]
IC50 (thrombin [1]): 34 nM
IC50 (thrombin [2]): 33 nM

COc1cc(C(=O)N2CC(C)OCC2C2CC(O)C2)cn2nc(NCc3cccc(Cl)c3)nc12 (single isomer, unassigned) [Example 3, {2-[(3-Chlorobenzyl)amino]-8-methoxy[1,2,4]triazolo[1,5-a]pyridin-6-yl}[5-(3-hydroxycyclobutyl)-2-methylmorpholin-4-yl]methanone]
IC50 (thrombin [1]): 70 nM
IC50 (thrombin [2]): 70 nM

COc1cc(C(=O)N2CC(C)OCC2C2CC(O)C2)cn2nc(NCc3cccc(Cl)c3)nc12 (single isomer, unassigned) [Example 4, {2-[(3-Chlorobenzyl)amino]-8-methoxy[1,2,4]triazolo[1,5-a]pyridin-6-yl}[5-(3-hydroxycyclobutyl)-2-methylmorpholin-4-yl]methanone]
IC50 (thrombin [1]): 9.4 nM
IC50 (thrombin [2]): 23 nM

COc1cc(C(=O)N2CC(C)OC[C@H]2C)cn2nc(NC(CF)c3cccc(Cl)c3)nc12 (single isomer, unassigned) [Example 5]
IC50 (thrombin [2]): 87 nM

COc1cc(C(=O)N2CC(C)(CCO)OC[C@H]2C)cn2nc(NCc3cccc(Cl)c3)nc12 (single isomer, unassigned) [Example 6]
IC50 (thrombin [1]): 8.7 nM
IC50 (thrombin [2]): 25 nM

COc1cc(C(=O)N2CC(C)(C)OCC2CF)cn2nc(NCc3cccc(Cl)c3)nc12 (single isomer, unassigned) [Example 13, {2-[(3-Chlorobenzyl)amino]-8-methoxy[1,2,4]triazolo[1,5-a]pyridin-6-yl}[5-(fluoromethyl)-2,2-dimethylmorpholin-4-yl]methanone]
IC50 (thrombin [1]): 420 nM

COc1cc(C(=O)N2CC(C)OCC2(C)C)cn2nc(NCc3cccc(Cl)c3)nc12 (single isomer, unassigned) [Example 28]
IC50 (thrombin [1]): 180 nM

COc1cc(C(=O)N2CC(C)(CCO)OCC2(C)C)cn2nc(NCc3cccc(Cl)c3)nc12 (single isomer, unassigned) [Example 32, {2-[(3-Chlorobenzyl)amino]-8-methoxy[1,2,4]triazolo[1,5-a]pyridin-6-yl}[2-(2-hydroxyethyl)-2,5,5-trimethylmorpholin-4-yl]methanone]
IC50 (thrombin [1]): 230 nM

COc1cc(C(=O)N2CC(C)(CC(C)O)OCC2(C)C)cn2nc(NCc3cccc(Cl)c3)nc12 (single isomer, unassigned) [Example 38, {2-[(3-Chlorobenzyl)amino]-8-methoxy[1,2,4]triazolo[1,5-a]pyridin-6-yl}[2-(2-hydroxypropyl)-2,5,5-trimethylmorpholin-4-yl]methanone]
IC50 (thrombin [1]): 2800 nM

COc1cc(C(=O)N2CC(C)OCC2CC(C)(C)O)cn2nc(NCc3cccc(Cl)c3)nc12 (single isomer, unassigned) [Example 43, {2-[(3-Chlorobenzyl)amino]-8-methoxy[1,2,4]triazolo[1,5-a]pyridin-6-yl}[5-(2-hydroxy-2-methylpropyl)-2-methylmorpholin-4-yl]methanone]
IC50 (thrombin [1]): 81 nM

COc1cc(C(=O)N2CC(C)OCC2CC(C)(C)O)cn2nc(NCc3cccc(Cl)c3)nc12 (single isomer, unassigned) [Example 44, {2-[(3-Chlorobenzyl)amino]-8-methoxy[1,2,4]triazolo[1,5-a]pyridin-6-yl}[5-(2-hydroxy-2-methylpropyl)-2-methylmorpholin-4-yl]methanone]
IC50 (thrombin [1]): 29 nM

COc1cc(C(=O)N2CC(C)(C)OCC2CC(C)O)cn2nc(NCc3cccc(Cl)c3)nc12 (single isomer, unassigned) [Example 46, {2-[(3-Chlorobenzyl)amino]-8-methoxy[1,2,4]triazolo[1,5-a]pyridin-6-yl}[5-(2-hydroxypropyl)-2,2-dimethylmorpholin-4-yl]methanone]
IC50 (thrombin [1]): 190 nM

COc1cc(C(=O)N2CC(C)(C)OCC2CC(C)O)cn2nc(NCc3cccc(Cl)c3)nc12 (single isomer, unassigned) [Example 47, {2-[(3-Chlorobenzyl)amino]-8-methoxy[1,2,4]triazolo[1,5-a]pyridin-6-yl}[5-(2-hydroxypropyl)-2,2-dimethylmorpholin-4-yl]methanone]
IC50 (thrombin [1]): 180 nM

COc1cc(C(=O)N2CC(C)(C)OCC2CC(C)O)cn2nc(NCc3cccc(Cl)c3)nc12 (single isomer, unassigned) [Example 48, {2-[(3-Chlorobenzyl)amino]-8-methoxy[1,2,4]triazolo[1,5-a]pyridin-6-yl}[5-(2-hydroxypropyl)-2,2-dimethylmorpholin-4-yl]methanone]
IC50 (thrombin [1]): 39 nM

COc1cc(C(=O)N2CC(C)(CCO)OCC2CF)cn2nc(NCc3cccc(Cl)c3)nc12 (single isomer, unassigned) [Example 51, {2-[(3-Chlorobenzyl)amino]-8-methoxy[1,2,4]triazolo[1,5-a]pyridin-6-yl}[5-(fluoromethyl)-2-(2-hydroxyethyl)-2-methylmorpholin-4-yl]methanone]
IC50 (thrombin [1]): 3500 nM

COc1cc(C(=O)N2CC(C)(CCO)OCC2CF)cn2nc(NCc3cccc(Cl)c3)nc12 (single isomer, unassigned) [Example 52, {2-[(3-Chlorobenzyl)amino]-8-methoxy[1,2,4]triazolo[1,5-a]pyridin-6-yl}[5-(fluoromethyl)-2-(2-hydroxyethyl)-2-methylmorpholin-4-yl]methanone]
IC50 (thrombin [1]): 1200 nM

COc1cc(C(=O)N2CC(C)(CC(C)O)OCC2CF)cn2nc(NCc3cccc(Cl)c3)nc12 (single isomer, unassigned) [Example 57, {2-[(3-Chlorobenzyl)amino]-8-methoxy[1,2,4]triazolo[1,5-a]pyridin-6-yl}[5-(fluoromethyl)-2-(2-hydroxypropyl)-2-methylmorpholin-4-yl]methanone]
IC50 (thrombin [1]): 1000 nM

[2H]C([2H])(C)O[C@@H]1CC(CO)N(C(=O)c2cc(OC)c3nc(NCc4cccc(Cl)c4)nn3c2)C1 (stereo partly drawn) [Example 73, {2-[(3-Chlorobenzyl)amino]-8-methoxy[1,2,4]triazolo[1,5-a]pyridin-6-yl}[(4R)-4-[(1,1-^2H2)ethyloxy]-2-(hydroxymethyl)pyrrolidin-1-yl]methanone]
IC50 (thrombin [2]): 39 nM
